Peptide text beside a SMILES is read from it. * marks the point of attachment. Cholyl = C[C@H](CCC(=O)*)[C@H]1CC[C@H]2[C@@H]3[C@H](O)C[C@@H]4C[C@H](O)CC[C@]4(C)[C@H]3C[C@H](O)[C@]12C
How the values were obtained:
Aβ1-40 [1] = target: T1, Aβ1-40 (Homo sapiens, UniProt P05067);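 note: Aβ nucleation assay tracking fiber polymerization from monomer by turbidity (light scattering), shaken continuously in 96-well plates, read every 15 min over 5 h, compared with compound-free control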
Source text: (§1) The nucleation assay is employed to determine the ability of test compounds to alter (e.g. inhibit) the early events in formation of β-AP fibers from monomeric β-AP. […] The time delay before polymerization of β-AP monomer can be quantified as well as the extent of formation of insoluble fiber by light scattering (turbidity). Polymerization reaches equilibrium when the maximum turbidity reaches a plateau. […] The threshold of sensitivity for the measurement of turbidity is in the range of 15-20 μM β-AP. […] This assay can be performed using stirring or shaking to accelerate polymerization, thereby increasing the speed of the assay. Moreover the assay can be adapted to a 96-well plate format to screen multiple compounds.
(§2) HFIP-solubilized peptide is sonicated in a waterbath sonicator for 5 min at highest setting, then evaporated to dryness under a stream of argon. […] Test compounds are dissolved in DMSO at a 100× concentration. […] Ten microliters of the mixture is then added to the bottom of a well of a Corning Costar ultra low binding 96-well plate (Corning Costar, Cambridge Mass.; cat. No. 2500). […] The plate is then returned to the shaker and shaken continuously for 5 hours. Turbidity readings are taken at 15 minute intervals.
(§3) Accordingly a fold increase in lag time of 1.0 indicates no change in lag time, whereas numbers >1.0 indicate an increase in lag time. The "% inhibition of plateau", which is a measure of the ability of the compound to decrease the total amount of aggregation, refers to the reduction of the final turbidity in the presence of the test compound expressed as a percent of the control without the test compound.

Aβ1-40 [2] = target: T1, Aβ1-40; assay: biochemical; conditions: read-out: % Inucl'n (percent reduction in maximum turbidity)
Source text: as §1, §2, §3

Aβ1-40 [3] = target: T1, Aβ1-40; assay: Seeded extension assay (thioflavin T fluorescence); assay type: biochemical; design: Natural β-AP (β-AP1-40) was obtained commercially from Bachem (Torrance, Calif.); purchased Bachem (Torrance, Calif.); conditions: Table V; 25 mole % inhibitor
Protocol: The seeded extension assay can be employed to measure the rate of Aβ fiber formed in a solution of Aβ monomer following addition of polymeric Aβ fiber "seed". The ability of test compounds to prevent further deposition of monomeric Aβ to previously deposited amyloid is determined using a direct indicator of β-sheet formation using fluorescence. In contrast with the nucleation assay, the addition of seed provides immediate nucleation and continued growth of preformed fibrils without the need for continuous mixing, and thus results in the absence of a lag time before polymerization starts. Since this assay uses static polymerization conditions, the activity of positive compounds in the nucleation assay can be confirmed in this second assay under different conditions and with an additional probe of amyloid structure.
Samples of the solution are then diluted in thioflavin T (Th-T). The polymer-specific association of Th-T with Aβ produces a fluorescent complex that allows the measurement of the extent of fibril formation (Levine, H. (1993) Protein Science 2:404-410). In particular, association of Th-T with aggregated β-AP, but not monomeric or loosely associated β-AP, gives rise to a new excitation (ex) maximum at 450 nm and an enhanced emission (em) at 482 nm, compared to the 385 nm (ex) and 445 nm (em) for the free dye. Small aliquots of the polymerization mixture contain sufficient fibril to be mixed with Th-T to allow the monitoring of the reaction mixture by repeated sampling. A linear growth curve is observed in the presence of excess monomer. The formation of thioflavin T responsive β-sheet fibrils parallels the increase in turbidity observed using the nucleation assay.
To prepare the stock seed, 1 ml of the Aβ monomer preparation, is incubated for approximately 8 days at 37° C. and sheared sequentially through an 18, 23, 26 and 30 gauge needle 25, 25, 50, and 100 times respectively. 2 μl samples of the sheared material is taken for fluorescence measurements after every 50 passes through the 30 gauge needle until the fluorescence units (FU) plateau (approx. 100-150×). Test compounds are prepared by dissolving an appropriate amount of test compound in 1× PBS to a final concentration of 1 mM (10× stock). If insoluble, the compound is dissolved in 1/10 volume of DMSO and diluted in 1× PBS to 1 mM. A further 1/10 dilution is also prepared to test each candidate at both 100 μM and 10 μM.
To perform the seeded extension assay, each sample is set up with 50 μl of 200 μM monomer, 125 FU sheared seed (a variable quantity dependent on the batch of seed, routinely 3-6 μl) and 10 μl of 10× modulator solution. The sample volume is then adjusted to a final volume of 100 μl with 1× PBS. Two concentrations of each modulator typically are tested: 100 μM and 10 μM, equivalent to a 1:1 and a 1:10 molar ratio of monomer to modulator. The controls include an unseeded reaction to confirm that the fresh monomer contains no seed, and a seeded reaction in the absence of any modulators, as a reference to compare against candidate modulators. The assay is incubated at 37° C. for 6 h, taking 2 μl samples hourly for fluorescence measurements. To measure fluorescence, a 2 μl sample of Aβ is added to 400 μl of Thioflavin-T solution (50 mM Potassium Phosphate […] pH 7.5). The samples are vortexed and the fluorescence is read in a 0.5 ml micro quartz cuvette at EX 450 nm and EM 482 nm (Hitachi 4500 Fluorimeter).
The modulators were evaluated in the nucleation and seeded extension assays described in Example 6 and the results are summarized below in Table V. The change in lag time (ΔLag) is presented as the ratio of the lag time observed in the presence of the test compound to the lag time of the control. […] Inhibition (% Inucl'n) is listed as the percent reduction in the maximum observed turbidity in the control at the end of the assay time period. […]

T1 sequence (P05067 672-711): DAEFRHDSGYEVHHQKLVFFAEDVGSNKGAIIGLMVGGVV

Structure (SMILES) | % Inhibition of Plateau (Aβ1-40 [1]) | inhibition at 100 % (Aβ1-40 [2]) | % Iext'n (percent reduction of thioflavin-T fluorescence) (Aβ1-40 [3]) | inhibition at 33 % (Aβ1-40 [2])
CC(C)C[C@H](NC(=O)[C@H](CCCCN)NC(=O)CC[C@@H](C)[C@H]1CC[C@H]2[C@@H]3[C@H](O)C[C@@H]4C[C@H](O)CC[C@]4(C)[C@H]3C[C@H](O)[C@]12C)C(=O)N[C@H](C(=O)N[C@@H](Cc1ccccc1)C(=O)N[C@@H](Cc1ccccc1)C(N)=O)C(C)C [PPI-319, cholyl-Aβ16-20-amide] | ~ 0% | 70% | 52% | 
C[C@H](NC(=O)[C@H](C)NC(=O)[C@H](C)NC(=O)[C@H](C)NC(=O)[C@H](C)NC(=O)CC[C@@H](C)[C@H]1CC[C@H]2[C@@H]3[C@H](O)C[C@@H]4C[C@H](O)CC[C@]4(C)[C@H]3C[C@H](O)[C@]12C)C(=O)O [PPI-365, Cholyl-penta-alanine, reference compound] | ~ 0% | -7% | 0% | 
CC(C)[C@H](NC(=O)[C@@H](NC(=O)[C@H](CCCCN)NC(=O)CC[C@@H](C)[C@H]1CC[C@H]2[C@@H]3[C@H](O)C[C@@H]4C[C@H](O)CC[C@]4(C)[C@H]3C[C@H](O)[C@]12C)[C@@H](C)O)C(=O)N[C@@H](Cc1ccccc1)C(=O)N[C@@H](Cc1ccccc1)C(=O)O [PPI-375] (Cholyl-KTVFF-OH) |  | 18% | 21% | 
CC(C)C[C@H](NC(=O)CC[C@@H](C)[C@H]1CC[C@H]2[C@@H]3[C@H](O)C[C@@H]4C[C@H](O)CC[C@]4(C)[C@H]3C[C@H](O)[C@]12C)C(=O)N[C@H](C(=O)N[C@@H](Cc1ccccc1)C(=O)N[C@@H](Cc1ccccc1)C(=O)N[C@@H](C)C(=O)N[C@@H](CCC(=O)O)C(=O)O)C(C)C [PPI-379] (Cholyl-LVFFAE-OH) |  | 55% | 16% | 
CC(C)C[C@H](NC(=O)CC[C@@H](C)[C@H]1CC[C@H]2[C@@H]3[C@H](O)C[C@@H]4C[C@H](O)CC[C@]4(C)[C@H]3C[C@H](O)[C@]12C)C(=O)N[C@H](C(=O)N[C@@H](Cc1ccccc1)C(=O)N[C@@H](Cc1ccccc1)C(=O)O)C(C)C [PPI-380] |  |  | 51% | 72%
CC(C)C[C@H](NC(=O)CC[C@@H](C)[C@H]1CC[C@H]2[C@@H]3[C@H](O)C[C@@H]4C[C@H](O)CC[C@]4(C)[C@H]3C[C@H](O)[C@]12C)C(=O)N[C@H](C(=O)N[C@@H](Cc1ccccc1)C(=O)N[C@@H](Cc1ccccc1)C(=O)N[C@H](C)C(=O)O)C(C)C [PPI-381] |  | 56% | 11% | 
CC(C)C[C@H](NC(=O)CC[C@@H](C)[C@H]1CC[C@H]2[C@@H]3[C@H](O)C[C@@H]4C[C@H](O)CC[C@]4(C)[C@H]3C[C@H](O)[C@]12C)C(=O)N[C@H](C(=O)N[C@@H](Cc1ccccc1)C(=O)N[C@@H](Cc1ccccc1)C(=O)N[C@@H](C)C(N)=O)C(C)C [PPI-382] |  | -200% | 91% | 
CC(C)[C@H](NC(=O)[C@H](C)NC(=O)CC[C@@H](C)[C@H]1CC[C@H]2[C@@H]3[C@H](O)C[C@@H]4C[C@H](O)CC[C@]4(C)[C@H]3C[C@H](O)[C@]12C)C(=O)N[C@@H](Cc1ccccc1)C(=O)N[C@@H](Cc1ccccc1)C(=O)N[C@@H](C)C(=O)O [PPI-388] (Cholyl-AVFFA-OH) |  | 68% | 44% | 
CC(C)C[C@H](NC(=O)CC[C@@H](C)[C@H]1CC[C@H]2[C@@H]3[C@H](O)C[C@@H]4C[C@H](O)CC[C@]4(C)[C@H]3C[C@H](O)[C@]12C)C(=O)N[C@@H](C)C(=O)N[C@@H](Cc1ccccc1)C(=O)N[C@@H](Cc1ccccc1)C(=O)N[C@@H](C)C(=O)O [PPI-389] (Cholyl-LAFFA-OH) |  | 47% | 66% | 
CC(C)C[C@H](NC(=O)CC[C@@H](C)[C@H]1CC[C@H]2[C@@H]3[C@H](O)C[C@@H]4C[C@H](O)CC[C@]4(C)[C@H]3C[C@H](O)[C@]12C)C(=O)N[C@H](C(=O)N[C@@H](C)C(=O)N[C@@H](Cc1ccccc1)C(=O)N[C@@H](C)C(=O)O)C(C)C [PPI-390] (Cholyl-LVAFA-OH) |  | 25% | 0% | 
CC(C)[C@H](NC(=O)CC[C@@H](C)[C@H]1CC[C@H]2[C@@H]3[C@H](O)C[C@@H]4C[C@H](O)CC[C@]4(C)[C@H]3C[C@H](O)[C@]12C)C(=O)N[C@@H](Cc1ccccc1)C(=O)N[C@@H](Cc1ccccc1)C(=O)N[C@@H](C)C(=O)O [PPI-392] (Cholyl-VFFA-OH) |  | 76% | 10% | 
CC(C)C[C@H](NC(=O)CC[C@@H](C)[C@H]1CC[C@H]2[C@@H]3[C@H](O)C[C@@H]4C[C@H](O)CC[C@]4(C)[C@H]3C[C@H](O)[C@]12C)C(=O)N[C@H](C(=O)N[C@@H](Cc1ccccc1)C(=O)O)C(C)C [PPI-393] |  | 1% | 0% | 
CC(C)[C@H](NC(=O)CC[C@@H](C)[C@H]1CC[C@H]2[C@@H]3[C@H](O)C[C@@H]4C[C@H](O)CC[C@]4(C)[C@H]3C[C@H](O)[C@]12C)C(=O)N[C@@H](Cc1ccccc1)C(=O)N[C@@H](Cc1ccccc1)C(=O)O [PPI-394] |  | 55% | 0% | 
C[C@H](NC(=O)[C@H](Cc1ccccc1)NC(=O)[C@H](Cc1ccccc1)NC(=O)CC[C@@H](C)[C@H]1CC[C@H]2[C@@H]3[C@H](O)C[C@@H]4C[C@H](O)CC[C@]4(C)[C@H]3C[C@H](O)[C@]12C)C(=O)O [PPI-395] |  | 51% | 6% | 
CC(C)C[C@H](NC(=O)CC[C@@H](C)[C@H]1CC[C@H]2[C@@H]3[C@H](O)C[C@@H]4C[C@H](O)CC[C@]4(C)[C@H]3C[C@H](O)[C@]12C)C(=O)N[C@H](C(=O)N[C@@H](Cc1ccccc1)C(=O)N[C@@H](Cc1ccccc1)C(=O)N[C@@H](CCCCN)C(=O)O)C(C)C [PPI-407] (Cholyl-LVFFK-OH) |  |  | 85% | 100%
CC(C)C[C@H](NC(=O)[C@@H](NC(=O)[C@H](Cc1ccccc1)NC(=O)[C@H](Cc1ccccc1)NC(=O)CC[C@@H](C)[C@H]1CC[C@H]2[C@@H]3[C@H](O)C[C@@H]4C[C@H](O)CC[C@]4(C)[C@H]3C[C@H](O)[C@]12C)C(C)C)C(=O)N[C@@H](C)C(=O)O [PPI-426] (Cholyl-FFVLA-OH) |  | 100% | 89% | 
CC(C)[C@H](NC(=O)[C@H](Cc1ccccc1)NC(=O)[C@H](Cc1ccccc1)NC(=O)CC[C@@H](C)[C@H]1CC[C@H]2[C@@H]3[C@H](O)C[C@@H]4C[C@H](O)CC[C@]4(C)[C@H]3C[C@H](O)[C@]12C)C(=O)O [PPI-429] |  | -33% | 7% | 
CC(C)C[C@H](NC(=O)[C@@H](NC(=O)[C@H](Cc1ccccc1)NC(=O)[C@H](Cc1ccccc1)NC(=O)CC[C@@H](C)[C@H]1CC[C@H]2[C@@H]3[C@H](O)C[C@@H]4C[C@H](O)CC[C@]4(C)[C@H]3C[C@H](O)[C@]12C)C(C)C)C(=O)O [PPI-430] (Cholyl-FFVL-OH) |  | 33% | 75% | 

Reference: US5854204A, “Aβ peptides that modulate β-amyloid aggregation” (priority 1996, dated 1998)
